Test results as given in ChEMBL document CHEMBL5226369, “Tetracyclic Steroids Bearing a Bicyclo[4.4.1] Ring System as Potent Antiosteoporosis Agents from the Deep-Sea-Derived Fungus Rhizopus sp. W23” (J Nat Prod, 2023).
Active and inactive are the calls of the source. No cut-off for these calls is given here.

Experiments:
[1] = tested on: A549; experiment: Antiproliferative activity against human A549 cells by MTT assay; format: functional, cell-based
[2] = tested on: NCI-H1299; experiment: Antiproliferative activity against human NCI-H1299 cells by MTT assay; format: functional, cell-based
[3] = tested on: MCF7; experiment: Antiproliferative activity against human MCF7 cells by MTT assay; format: functional, cell-based
[4] = tested on: A-431; experiment: Antiproliferative activity against human A-431 cells by MTT assay; format: functional, cell-based
[5] = Antiproliferative activity against human SKGT4 cells by MTT assay; format: functional, cell-based
[6] = tested on: A-375; experiment: Antiproliferative activity against human A-375 cells by MTT assay; format: functional, cell-based
[7] = tested on: BMSC; experiment: Anti-osteoporosis activity against C57BL/6J mouse BMSC cells assessed as increase in matrix mineralization of osteoblasts at 20 uM incubated for 14 days by Alizarin Red S staining based analysis; format: functional, cell-based; conditions: time 14.0 day
[8] = tested on: NCI-H460; experiment: Antiproliferative activity against human NCI-H460 cells by MTT assay; format: functional, cell-based
[9] = tested on: HepG2; experiment: Antiproliferative activity against human HepG2 cells by MTT assay; format: functional, cell-based
[10] = tested on: PANC-1; experiment: Antiproliferative activity against human PANC-1 cells by MTT assay; format: functional, cell-based
[11] = tested on: BGC-823; experiment: Antiproliferative activity against human BGC-823 cells by MTT assay; format: functional, cell-based
[12] = tested on: MDA-MB-231; experiment: Antiproliferative activity against human MDA-MB-231 cells by MTT assay; format: functional, cell-based
[13] = tested on: HCT-116; experiment: Antiproliferative activity against human HCT-116 cells by MTT assay; format: functional, cell-based
[14] = Inhibition of adipogenic differentiation in C57BL/6J mouse BMSC cells at 5 uM measured after 6 days by Oil Red O staining based light microscopy; format: functional; conditions: 144 h, time 6 day
[15] = tested on: HL-60; experiment: Antiproliferative activity against human HL-60 cells by MTT assay; format: functional, cell-based
[16] = tested on: PC-3; experiment: Antiproliferative activity against human PC-3 cells by MTT assay; format: functional, cell-based
[17] = tested on: U2OS; experiment: Antiproliferative activity against human U2OS cells by MTT assay; format: functional, cell-based
[18] = tested on: K562; experiment: Antiproliferative activity against human K562 cells by MTT assay; format: functional, cell-based
[19] = tested on: KYSE-450; experiment: Antiproliferative activity against human KYSE-450 cells by MTT assay; format: functional, cell-based
[20] = Antiproliferative activity against human QGY-7701 cells by MTT assay; format: functional, cell-based; conditions: QGY7701
[21] = tested on: BMSC; experiment: (§1) Anti-osteoporosis activity against C57BL/6J mouse BMSC cells assessed as increase in osteogenic mineralization incubated for 14 days by Alizarin Red S staining based analysis; format: functional; conditions: time 14.0 day
[22] = as §1; format: functional; conditions: 336 h, time 14 day, read-out: MEC
[23] = Inhibition of adipogenic differentiation in C57BL/6J mouse BMSC cells at 20 uM measured after 6 days by Oil Red O staining based light microscopy; format: functional; conditions: 144 h, time 6 day
[24] = molecular target: Protein smoothened (Homo sapiens, UniProt Q99835); experiment: Agonist activity at SMO receptor (unknown origin)
Chain of Protein smoothened (Q99835 whole entry): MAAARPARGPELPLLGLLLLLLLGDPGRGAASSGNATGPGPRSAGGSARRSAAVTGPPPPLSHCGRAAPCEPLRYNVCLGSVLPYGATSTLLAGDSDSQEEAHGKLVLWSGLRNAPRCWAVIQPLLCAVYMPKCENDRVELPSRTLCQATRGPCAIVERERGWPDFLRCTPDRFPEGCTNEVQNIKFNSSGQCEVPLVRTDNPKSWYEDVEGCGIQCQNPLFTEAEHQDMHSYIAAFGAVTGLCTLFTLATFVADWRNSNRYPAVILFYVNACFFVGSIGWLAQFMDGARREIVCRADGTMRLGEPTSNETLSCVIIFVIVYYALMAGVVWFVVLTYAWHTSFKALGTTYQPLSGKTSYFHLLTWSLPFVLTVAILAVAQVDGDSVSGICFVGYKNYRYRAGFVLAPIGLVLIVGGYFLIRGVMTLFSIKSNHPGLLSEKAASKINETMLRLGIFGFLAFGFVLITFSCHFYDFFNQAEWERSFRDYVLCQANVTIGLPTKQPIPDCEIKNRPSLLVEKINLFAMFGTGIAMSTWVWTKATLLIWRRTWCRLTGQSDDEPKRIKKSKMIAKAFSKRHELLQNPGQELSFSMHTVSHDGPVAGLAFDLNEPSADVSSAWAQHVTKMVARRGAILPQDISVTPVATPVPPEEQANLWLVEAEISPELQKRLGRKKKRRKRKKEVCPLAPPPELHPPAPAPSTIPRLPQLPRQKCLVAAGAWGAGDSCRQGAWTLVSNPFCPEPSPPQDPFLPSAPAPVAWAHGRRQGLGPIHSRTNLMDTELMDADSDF

C/C(=C\[C@@H](O)[C@H](C)O)[C@H]1CC[C@H]2C3=CC(=O)[C@H]4CC(=CC[C@H](O)C4)[C@H]3CC[C@]12C [NEOCYCLOCITRINOL C]
IC50 [1]: > 20 µM
IC50 [2]: > 20 µM
IC50 [3]: > 20 µM
IC50 [4]: > 20 µM
IC50 [5]: > 20 µM
IC50 [6]: > 20 µM
Activity [7]: Active
IC50 [8]: > 20 µM
IC50 [9]: > 20 µM
IC50 [10]: > 20 µM
IC50 [11]: > 20 µM
IC50 [12]: > 20 µM
IC50 [13]: > 20 µM
inhibition at 5 µM [14]: 78%
IC50 [15]: > 20 µM
IC50 [16]: > 20 µM
IC50 [17]: > 20 µM
IC50 [18]: > 20 µM
IC50 [19]: > 20 µM
IC50 [20]: > 20 µM
Activity [21]: Dose-Dependent Effect
minimal effective concentration [22]: 5 µM

C/C(=C/[C@H](O)[C@H](C)O)[C@H]1CC[C@H]2C3=CC(=O)[C@H]4CC(=CC[C@H](O)C4)[C@H]3CC[C@]12C
IC50 [1]: > 20 µM
IC50 [2]: > 20 µM
IC50 [3]: > 20 µM
IC50 [4]: > 20 µM
IC50 [5]: > 20 µM
IC50 [6]: > 20 µM
Activity [7]: Active
IC50 [8]: > 20 µM
IC50 [9]: > 20 µM
IC50 [10]: > 20 µM
IC50 [11]: > 20 µM
IC50 [12]: > 20 µM
inhibition at 20 µM [23]: 65%
IC50 [13]: > 20 µM
IC50 [15]: > 20 µM
IC50 [16]: > 20 µM
IC50 [17]: > 20 µM
IC50 [18]: > 20 µM
IC50 [19]: > 20 µM
IC50 [20]: > 20 µM
Activity [21]: Dose-Dependent Effect
minimal effective concentration [22]: 20 µM

c1ccc2c(Oc3nc(Nc4ccc(N5CCOCC5)cc4)c4ncn(C5CCCCC5)c4n3)cccc2c1 [PURMORPHAMINE]
EC50 [24]: 1 µM

CO[C@@H](/C=C(\C)[C@H]1CC[C@H]2C3=CC(=O)[C@H]4CC(=CC[C@H](O)C4)[C@H]3CC[C@]12C)[C@@H](C)O
IC50 [1]: > 20 µM
IC50 [2]: > 20 µM
IC50 [3]: > 20 µM
IC50 [4]: > 20 µM
IC50 [5]: > 20 µM
IC50 [6]: > 20 µM
IC50 [8]: > 20 µM
IC50 [9]: > 20 µM
IC50 [10]: > 20 µM
IC50 [11]: > 20 µM
IC50 [12]: > 20 µM
IC50 [13]: > 20 µM
IC50 [15]: > 20 µM
IC50 [16]: > 20 µM
IC50 [17]: > 20 µM
IC50 [18]: > 20 µM
IC50 [19]: > 20 µM
IC50 [20]: > 20 µM
